Experimental findings from PubChem BioAssay (NCI) are described below.

“And” between values parts separate entries of the source, which are not always exact repeats. Equal entries are not always repeated.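 The compound was tested at five concentrations on cells cultured in 96-well plates, with a 48-hour exposure period. GI50: concentration for 50% inhibition of growth. Definition used: TGI = concentration required for complete inhibition of growth.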 Where only a bound is given, the exact number is not on record here.

Assay in all cases: NCI tumour cell line growth inhibition, 48 h
Assay [1] has as its system P388/ADR leukemia.
In assay [2] the test system is LXFL 529 NSCLC.
For assay [3], the system named is P388 leukemia.
The test system of assay [4] is SN12K1 renal.
Assay [5] concerns M19-MEL melanoma.
For assay [6], the system named is SNB-78 CNS.
Assay [7] deals with DLD-1 colon.
Assay [8] has as its system RXF-631 renal.

Turning to `COc1cccc2c1C(=O)c1c(O)c3c(c(O)c1C2=O)C[C@@](O)(C(C)=O)C[C@@H]3OC1CC(N(C)C)C(O)C(C)O1` (some centres undefined), the TGI in assay [1] was 0.135 µM; in assay [2], 1 µM; in assay [3], 0.0139 µM; in assay [4], 0.0851 µM; in assay [5] it was 0.292 µM and 0.039 µM; in assay [6] it was 1.04 µM and 0.467 µM. For the same compound, the TGI in assay [7] was 3.34 µM and 0.705 µM. Also, the GI50 in assay [6] is 0.0302 µM and 0.0169 µM.
Regarding `CC1C(O)[C@@]2(OC[C@@]34C(=O)CC5(O)[C@H](CCC6Cc7nc8c(nc7C[C@]65C)CC5CC[C@@H]6C7=C[C@H]9O[C@@]%10(O[C@@](C)(CO)C[C@@H]%10O)C(C)[C@@]9(O)[C@]7(C)[C@@H](O)CC6[C@]5(C)C8)C3=CC[C@H]4C2C)OC1(C)C` (some centres undefined), the TGI is 0.0266 µM in assay [1]; over 3.55 µM in assay [3]; over 3.55 µM in assay [4]; over 3.55 µM in assay [5]; 3.44 µM in assay [6]; 0.652 µM in assay [7].
Consider `O=NN(CCCl)C(=O)Nc1ccc(Cl)c(Cl)c1`, for which the TGI in assay [1], in assay [3], in assay [4], in assay [5], in assay [6] and in assay [7] was over 100 µM in each case.
With `O=C1CSc2sc(=S)sc2S1`, the TGI is 97.8 µM in assay [1]; over 100 µM in assay [3]; over 100 µM in assay [4]; over 100 µM in assay [5]; 99.2 µM in assay [6]; over 100 µM in assay [7].
For the compound `O=[P+](O)c1cccs1`, the TGI in assay [2], in assay [5] and in assay [7] was over 100 µM throughout.
`Cc1ccc(NC(=O)CC(=O)n2nc(-c3ccccc3)c(N=Nc3ccccc3C(=O)O)c2-c2ccccc2)cc1`: the TGI in assay [2], in assay [5], in assay [8] and in assay [7] was over 100 µM each time.
`COC[C@@H]1Cc2cc(OC)c3c(c2[C@H](c2ccc(OC)c(OC)c2)[C@H]1COC)OCO3`: the TGI in assay [2], in assay [5], in assay [8] and in assay [7] was over 100 µM in each case.
On to `Nc1nccc2c1ncn2C1C=C(CO)C(O)C1O` (centres undefined), for which the TGI was 40.8 µM in assay [1]; over 1000 µM in assay [2]; over 76.4 µM in assay [3]; over 1000 µM in assay [5]; over 1000 µM in assay [6]; over 1000 µM in assay [8]. In assay [7], this compound yielded a TGI of over 1000 µM. For the same compound, the GI50 in assay [2] was over 1000 µM; in assay [5] it was 7.78 µM; in assay [6] it was over 1000 µM; in assay [8] it was 902 µM; in assay [7], 104 µM.
